Reference: the supplement of paper PMC10307832

Legend:
Assay in all cases: relative viability (nuclei count vs DMSO), 5 days (fraction); higher = more cells survive
HOP-62 = system: HOP-62
In short: (§1)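 Each reported value is a median over duplicate plates. It expresses relative viability: treated-well nuclei count divided by vehicle-well nuclei count. Lung cancer cell lines in 1536-well plates were dosed by pin tool a day after seeding, alone with one drug or with a fixed anchor-drug dose plus five library-drug doses (not always all listed) in √10 steps, and nuclei were counted after 5 days.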

NCI-H1437 = system: NCI-H1437
In short: as §1

SW 1573 = system: SW 1573
In short: as §1

SK-LU-1 = system: SK-LU-1
In short: as §1

HCC-827 = system: HCC-827
In short: as §1

NCI-H1395 = system: NCI-H1395
In short: as §1

NCI-H2009 = system: NCI-H2009
In short: as §1

HCC-366 = system: HCC-366
In short: as §1

NCI-H522 = system: NCI-H522
In short: as §1

COR-L 105 = system: COR-L 105
In short: as §1

NCI-H2228 = system: NCI-H2228
In short: as §1

NCI-H1755 = system: NCI-H1755
In short: as §1

NCI-H727 = system: NCI-H727
In short: as §1

A-427 = system: A-427
In short: as §1

CAL-12T = system: CAL-12T
In short: as §1

NCI-H1792 = system: NCI-H1792
In short: as §1

EMC-BAC-2 = system: EMC-BAC-2
In short: as §1

NCI-H1915 = system: NCI-H1915
In short: as §1

HARA = system: HARA
In short: as §1

LCLC-103H = system: LCLC-103H
In short: as §1

NCI-H23 = system: NCI-H23
In short: as §1

NCI-H460 = system: NCI-H460
In short: as §1

In the case of `Nc1ccn([C@@H]2O[C@H](CO)[C@@H](O)[C@@H]2O)c(=O)n1` [Cytarabine] + N=C(N)NC(=N)NCCc1ccccc1 [Phenformin] (partner 250 µM), the relative viability (HOP-62; first compound 0.005 µM) was 0.506, the relative viability (HOP-62; first compound 0.01581 µM) was 0.486 and the relative viability (HOP-62; first compound 0.05 µM) was 0.399. The relative viability (HOP-62; first compound 0.1581 µM) was 0.156, the relative viability (HOP-62; first compound 0.5 µM) was 0.152 and the relative viability (NCI-H1437; first compound 0.005 µM) was 0.199. For the same molecule, the relative viability (NCI-H1437; first compound 0.01581 µM) was 0.183, the relative viability (NCI-H1437; first compound 0.05 µM) was 0.17 and the relative viability (NCI-H1437; first compound 0.5 µM) was 0.105. It also gave a relative viability (SW 1573; first compound 0.005 µM) of 0.342, a relative viability (SW 1573; first compound 0.01581 µM) of 0.287 and a relative viability (SW 1573; first compound 0.05 µM) of 0.218. The relative viability (SW 1573; first compound 0.1581 µM) was 0.131, the relative viability (SW 1573; first compound 0.5 µM) was 0.109 and the relative viability (SK-LU-1; first compound 0.005 µM) was 0.353. The relative viability (SK-LU-1; first compound 0.01581 µM) was 0.413, the relative viability (SK-LU-1; first compound 0.05 µM) was 0.445 and the relative viability (SK-LU-1; first compound 0.1581 µM) was 0.241. It also gave a relative viability (SK-LU-1; first compound 0.5 µM) of 0.2, a relative viability (HCC-827; first compound 0.005 µM) of 0.321 and a relative viability (HCC-827; first compound 0.01581 µM) of 0.258. The relative viability (HCC-827; first compound 0.05 µM) was 0.195, the relative viability (HCC-827; first compound 0.1581 µM) was 0.141 and the relative viability (HCC-827; first compound 0.5 µM) was 0.158. It also gave a relative viability (NCI-H1395; first compound 0.005 µM) of 0.411, a relative viability (NCI-H1395; first compound 0.01581 µM) of 0.392 and a relative viability (NCI-H1395; first compound 0.05 µM) of 0.353. For the same molecule, the relative viability (NCI-H1395; first compound 0.1581 µM) was 0.319, the relative viability (NCI-H1395; first compound 0.5 µM) was 0.31 and the relative viability (NCI-H2009; first compound 0.005 µM) was 0.42. It also gave a relative viability (NCI-H2009; first compound 0.01581 µM) of 0.503, a relative viability (NCI-H2009; first compound 0.05 µM) of 0.455 and a relative viability (NCI-H2009; first compound 0.1581 µM) of 0.386. It also gave a relative viability (NCI-H2009; first compound 0.5 µM) of 0.268, a relative viability (HCC-366; first compound 0.005 µM) of 0.617 and a relative viability (HCC-366; first compound 0.01581 µM) of 0.586. For the same molecule, the relative viability (HCC-366; first compound 0.05 µM) was 0.528, the relative viability (HCC-366; first compound 0.1581 µM) was 0.2 and the relative viability (HCC-366; first compound 0.5 µM) was 0.0951. For the same molecule, the relative viability (NCI-H522; first compound 0.005 µM) was 0.669, the relative viability (NCI-H522; first compound 0.01581 µM) was 0.602 and the relative viability (NCI-H522; first compound 0.05 µM) was 0.554. For the same molecule, the relative viability (NCI-H522; first compound 0.1581 µM) was 0.489, the relative viability (NCI-H522; first compound 0.5 µM) was 0.449 and the relative viability (COR-L 105; first compound 0.005 µM) was 0.428. It also gave a relative viability (COR-L 105; first compound 0.01581 µM) of 0.504, a relative viability (COR-L 105; first compound 0.05 µM) of 0.43 and a relative viability (COR-L 105; first compound 0.1581 µM) of 0.29. It also gave a relative viability (COR-L 105; first compound 0.5 µM) of 0.259, a relative viability (NCI-H2228; first compound 0.005 µM) of 0.25 and a relative viability (NCI-H2228; first compound 0.01581 µM) of 0.197. For the same molecule, the relative viability (NCI-H2228; first compound 0.05 µM) was 0.182, the relative viability (NCI-H2228; first compound 0.1581 µM) was 0.118 and the relative viability (NCI-H2228; first compound 0.5 µM) was 0.112. It also gave a relative viability (NCI-H1755; first compound 0.005 µM) of 0.621, a relative viability (NCI-H1755; first compound 0.01581 µM) of 0.413 and a relative viability (NCI-H1755; first compound 0.05 µM) of 0.466. It also gave a relative viability (NCI-H1755; first compound 0.1581 µM) of 0.274, a relative viability (NCI-H1755; first compound 0.5 µM) of 0.236 and a relative viability (NCI-H727; first compound 0.005 µM) of 0.451. The relative viability (NCI-H727; first compound 0.01581 µM) was 0.479, the relative viability (NCI-H727; first compound 0.05 µM) was 0.486 and the relative viability (NCI-H727; first compound 0.1581 µM) was 0.406. For the same molecule, the relative viability (NCI-H727; first compound 0.5 µM) was 0.429, the relative viability (A-427; first compound 0.005 µM) was 0.255 and the relative viability (A-427; first compound 0.01581 µM) was 0.188. For the same molecule, the relative viability (A-427; first compound 0.05 µM) was 0.207, the relative viability (A-427; first compound 0.5 µM) was 0.153 and the relative viability (CAL-12T; first compound 0.005 µM) was 0.524. The relative viability (CAL-12T; first compound 0.01581 µM) was 0.489, the relative viability (CAL-12T; first compound 0.05 µM) was 0.638 and the relative viability (CAL-12T; first compound 0.1581 µM) was 0.283. It also gave a relative viability (CAL-12T; first compound 0.5 µM) of 0.18, a relative viability (NCI-H1792; first compound 0.01581 µM) of 0.107 and a relative viability (NCI-H1792; first compound 0.05 µM) of 0.16. The relative viability (NCI-H1792; first compound 0.1581 µM) was 0.196, the relative viability (NCI-H1792; first compound 0.5 µM) was 0.133 and the relative viability (EMC-BAC-2; first compound 0.005 µM) was 0.418. It also gave a relative viability (EMC-BAC-2; first compound 0.01581 µM) of 0.482, a relative viability (EMC-BAC-2; first compound 0.05 µM) of 0.398 and a relative viability (EMC-BAC-2; first compound 0.1581 µM) of 0.268. The relative viability (EMC-BAC-2; first compound 0.5 µM) was 0.196, the relative viability (NCI-H1915; first compound 0.005 µM) was 0.324 and the relative viability (NCI-H1915; first compound 0.01581 µM) was 0.328. For the same molecule, the relative viability (NCI-H1915; first compound 0.05 µM) was 0.329, the relative viability (NCI-H1915; first compound 0.1581 µM) was 0.268 and the relative viability (NCI-H1915; first compound 0.5 µM) was 0.245. For the same molecule, the relative viability (HARA; first compound 0.005 µM) was 0.359, the relative viability (HARA; first compound 0.01581 µM) was 0.325 and the relative viability (HARA; first compound 0.05 µM) was 0.296. The relative viability (HARA; first compound 0.1581 µM) was 0.196, the relative viability (HARA; first compound 0.5 µM) was 0.0852 and the relative viability (LCLC-103H; first compound 0.005 µM) was 0.332. For the same molecule, the relative viability (LCLC-103H; first compound 0.01581 µM) was 0.365, the relative viability (LCLC-103H; first compound 0.05 µM) was 0.335 and the relative viability (LCLC-103H; first compound 0.1581 µM) was 0.31. For the same molecule, the relative viability (LCLC-103H; first compound 0.5 µM) was 0.311, the relative viability (NCI-H23; first compound 0.005 µM) was 0.784 and the relative viability (NCI-H23; first compound 0.01581 µM) was 0.649. For the same molecule, the relative viability (NCI-H23; first compound 0.05 µM) was 0.721, the relative viability (NCI-H23; first compound 0.1581 µM) was 0.367 and the relative viability (NCI-H23; first compound 0.5 µM) was 0.156. For the same molecule, the relative viability (NCI-H460; first compound 0.005 µM) was 0.309, the relative viability (NCI-H460; first compound 0.01581 µM) was 0.248 and the relative viability (NCI-H460; first compound 0.05 µM) was 0.114. It also gave a relative viability (NCI-H460; first compound 0.1581 µM) of 0.0419 and a relative viability (NCI-H460; first compound 0.5 µM) of 0.0341.
